Test system: genotype 1/2 chimeric cell culture derived HCV (HCVcc)
Assay: Genotype 1/2 chimeric HCVcc assay (nano-luciferase, HCV replication)
Format: cell-based
Conditions: Hepatitis C virus, Huh7.5, 72 h
Experimental: Naïve Huh-7.5 target cells were plated at 2400 cells/well in 25 μL of culture media in 384-well plates (Greiner bio-one, μ clear black). After overnight incubation, compounds serially diluted in 10 μL of cell culture media were added. After 2 h compound treatment, cells were inoculated with 40 μL of genotype 1/2 chimeric cell culture derived HCV (HCVcc) which express structural proteins of an HCV genotype 1a isolate (TN accession number EF621489) and non-structural proteins of HCV genotype 2a (JFH-1) with nano-luciferase reporter. At 72 h post infection, nano-luciferase activity (Nano-Glo™, Promega) and cellular ATP (Cell titer-Glo™, Promega) were measured as a marker for HCV replication and cytotoxicity, respectively. EC50 and CC50 were calculated by non-linear regression analyzing using GraphPad Prism (GraphPad Software).

CCOC(=O)c1c(NC(=O)NC(C)c2c(-n3cccc3)sc3c2CCN(CC)C3)sc2c1CCCC2 (centres unmarked) [Compound 1]
EC50: 100 to 1000 nM

CCOC(=O)c1c(NC(=O)NCc2c(-n3cccc3)sc3c2CCN(CC)C3)sc2c1CCCC2 [Compound 2]
EC50: < 100 nM

CCOC(=O)c1c(NC(=O)NCc2ccsc2)sc2c1CCCC2 [Compound 3]
EC50: < 100 nM

CCOC(=O)c1c(NC(=O)NCc2c(-n3cccc3)sc3c2CCCC3)sc2c1CCCC2 [Compound 4]
EC50: < 100 nM

CCN1CCc2c(sc(-n3cccc3)c2CNC(=O)Nc2sc3c(c2C#N)CCCC3)C1 [Compound 5]
EC50: > 10000 nM

N#Cc1c(NC(=O)NCc2c(-n3cccc3)sc3c2CCCC3)sc2c1CCCC2 [Compound 6]
EC50: 1000 to 10000 nM

CCOC(=O)c1c(NC(=O)NCc2c(-n3cccc3)sc3c2CCN(Cc2ccccc2)C3)sc2c1CCCC2 [Compound 7]
EC50: < 100 nM

CCN1CCc2c(sc(-n3cccc3)c2CNC(=O)Nc2ccccc2)C1 [Compound 8]
EC50: > 10000 nM

CCN1CCc2c(sc(-n3cccc3)c2CNC(=O)Nc2cccc(Cl)c2)C1 [Compound 9]
EC50: > 10000 nM

CCN1CCc2c(sc(-n3cccc3)c2CNC(=O)Nc2ccccc2C(=O)OC)C1 [Compound 10]
EC50: > 10000 nM

CCN1CCc2c(sc(-n3cccc3)c2CNC(=O)Nc2nccs2)C1 [Compound 13]
EC50: > 10000 nM

CCN1CCc2c(sc(-n3cccc3)c2CNC(=O)Nc2sc3c(c2C(=O)OC(C)(C)C)CCCC3)C1 [Compound 14]
EC50: < 100 nM

CCN1CCc2c(sc(-n3cccc3)c2CNC(=O)Nc2cccs2)C1 [Compound 15]
EC50: > 10000 nM

CCN1CCc2c(sc(-n3cccc3)c2CNC(=O)Nc2sc3c(c2C(=O)O)CCCC3)C1 [Compound 16]
EC50: > 10000 nM

CCOC(=O)c1c(NC(=O)c2cc3c(s2)CCCC3)sc2c1CCN(CC)C2 [Compound 17]
EC50: 1000 to 10000 nM

CCOC(=O)c1c(NC(=O)NCc2c(-n3cccc3)sc3c2CCN(Cc2ccc(OC)cc2)C3)sc2c1CCCC2 [Compound 18]
EC50: < 100 nM

CCOC(=O)c1c(NC(=O)NCc2c(-n3cccc3)sc3c2CCN(C(C)=O)C3)sc2c1CCCC2 [Compound 20]
EC50: < 100 nM

CCOC(=O)c1c(NC(=O)NCc2c(-n3cccc3)sc3c2CCN(S(C)(=O)=O)C3)sc2c1CCCC2 [Compound 21]
EC50: < 100 nM

CCOC(=O)c1c(NC(=O)NCc2c(-n3cccc3)sc(CN(C)C)c2C)sc2c1CCCC2 [Compound 22]
EC50: < 100 nM

CCOC(=O)c1c(NC(=O)c2c(-n3cccc3)sc3c2CCN(CC)C3)sc2c1CCCC2 [Compound 23]
EC50: 1000 to 10000 nM

CCOC(=O)c1cc(C(C)C)sc1NC(=O)NCc1c(-n2cccc2)sc2c1CCN(CC)C2 [Compound 24]
EC50: 100 to 1000 nM

CCN1CCc2c(sc(-n3cccc3)c2CNC(=O)Nc2sc(C)c(C)c2C(=O)OC(C)(C)C)C1 [Compound 25]
EC50: < 100 nM

CCOC(=O)c1c(NC(=O)NCc2c(-n3cccc3)sc3c2CCN(CC)C3)sc2c1CCN(CC)C2 [Compound 26]
EC50: < 100 nM

CCOC(=O)c1c(NC(=O)NCc2c(-n3cccc3)sc3c2CCN(CC(C)C)C3)sc2c1CCCC2 [Compound 27]
EC50: < 100 nM

CCOC(=O)c1c(NC(=O)NCc2c(-n3cccc3)sc3c2CCN(Cc2ccccc2)C3)sc(C)c1C [Compound 28]
EC50: < 100 nM

CCOC(=O)c1c(NC(=O)NCc2ccc(CN(C)C)cc2)sc2c1CCCC2 [Compound 29]
EC50: 100 to 1000 nM

CCOC(=O)c1c(NC(=O)NCc2c(N3C(=O)CCC3=O)sc3c2CCN(CC)C3)sc2c1CCCC2 [Compound 31]
EC50: 100 to 1000 nM

CCOC(=O)c1c(NC(=O)NCc2c(-n3cccc3)sc3c2CCN(CC)C3)sc(OC)c1C [Compound 32]
EC50: 100 to 1000 nM

CCOC(=O)c1c(NC(=O)NCc2c(-n3cccc3)sc3c2CCN(CC)C3)sc(N2CCOCC2)c1C [Compound 33]
EC50: 100 to 1000 nM

CCOC(=O)c1c(NC(=O)NCc2c(-n3cccc3)sc3c2CCN(CC)C3)sc2ccccc12 [Compound 34]
EC50: 100 to 1000 nM

CCOC(=O)c1c(NC(=O)NCc2csc3c2CCCC3)sc2c1CCCC2 [Compound 35]
EC50: < 100 nM

CCNC(=O)c1c(NC(=O)NCc2c(-n3cccc3)sc3c2CCN(CC)C3)sc2c1CCCC2 [Compound 36]
EC50: < 100 nM

CCN1CCc2c(sc(-n3cccc3)c2CNC(=O)Nc2sc3c(c2C(N)=O)CCCC3)C1 [Compound 37]
EC50: 100 to 1000 nM

CCOC(=O)c1c(NC(=O)NCc2csc3c2CCNC3)sc2c1CCCC2 [Compound 38]
EC50: < 100 nM

CCOC(=O)c1c(NC(=O)NCc2c(-n3cccc3)sc3c2CCN(CC)C3)sc(C(C)=O)c1C [Compound 39]
EC50: < 100 nM

CCOC(=O)c1cc(-c2ccccc2)sc1NC(=O)NCc1c(-n2cccc2)sc2c1CCN(CC)C2 [Compound 40]
EC50: 100 to 1000 nM

CCOC(=O)c1c(NC(=O)NCc2c(-n3cccc3)sc3c2CCN(CC)C3)sc2c1CCOC2 [Compound 41]
EC50: < 100 nM

CCOC(=O)c1c(NC(=O)NCc2c(-n3cccc3)sc3c2CCN(CC)C3)sc(C)c1-c1ccc(F)cc1 [Compound 42]
EC50: < 100 nM

CCN1CCc2c(sc(-n3cccc3)c2CNC(=O)Nc2sc3c(c2-c2nnc(C)o2)CCCC3)C1 [Compound 43]
EC50: < 100 nM

CCOC(=O)c1c(NC(=S)NCc2c(-n3cccc3)sc3c2CCN(CC)C3)sc2c1CCCC2 [Compound 44]
EC50: < 100 nM

CCOC(=O)c1cc2ccccc2cc1NC(=O)NCc1c(-n2cccc2)sc2c1CCN(CC)C2 [Compound 45]
EC50: 1000 to 10000 nM

CCOC(=O)c1c(NC(=O)NCc2c(-n3cccc3)sc3c2CCN(CC)C3)sc2c1CCNC2 [Compound 46]
EC50: 100 to 1000 nM

CCOC(=O)c1c(NC(=O)NCc2c(-n3cccc3)sc3c2CCN(CC)C3)sc2c1CCN(C(C)=O)C2 [Compound 47]
EC50: < 100 nM

CCOC(=O)c1c(NC(=O)NCc2c(-n3cccc3)sc3c2CCOC3)sc2c1CCCC2 [Compound 48]
EC50: < 100 nM

CCOC(=O)c1c(NC(=O)NC(=O)c2c(-n3c(C)ccc3C)sc3c2CCN(CC)C3)sc2c1CCCC2 [Compound 49]
EC50: 1000 to 10000 nM

CCOC(=O)c1c(NC(=O)NCc2c(-n3cccc3)sc(C(=O)OC(C)(C)C)c2C)sc2c1CCCC2 [Compound 50]
EC50: 1000 to 10000 nM

CCOC(=O)c1c(NC(=O)NCc2c(-n3c(C)ccc3C)sc3c2CCN(CC)C3)sc2c1CCCC2 [Compound 51]
EC50: < 100 nM

CCOC(=O)c1c(NC(=O)NCc2c(-n3cccc3)sc(C(=O)N(C)C)c2C)sc2c1CCCC2 [Compound 52]
EC50: 100 to 1000 nM

CCOC(=O)c1c(NC(=O)NCc2c(-n3cccc3)sc(CN3CCOCC3)c2C)sc2c1CCCC2 [Compound 53]
EC50: < 100 nM

CCOC(=O)c1c(NC(=O)NCc2c(N3CCOCC3)sc3c2CCNC3)sc2c1CCCC2 [Compound 54]
EC50: 100 to 1000 nM

CCOC(=O)c1c(N(C)C(=O)NCc2c(-n3cccc3)sc3c2CCN(CC)C3)sc2c1CCCC2 [Compound 55]
EC50: 1000 to 10000 nM

CCOC(=O)c1c(NC(=O)NCc2c(-n3cccc3)sc3c2CCN(CC)C3)sc2c1CCCCC2 [Compound 56]
EC50: < 100 nM

CCOC(=O)c1c(NC(=O)NCc2c(-n3cccc3)sc3c2CCN(CC)C3)sc2c1CCC2 [Compound 57]
EC50: < 100 nM

CCOC(=O)c1c(NC(=O)NCc2c(-n3cccc3)sc3c2CCN(CC)C3)sc(C(=O)N(C)C)c1C [Compound 58]
EC50: 1000 to 10000 nM

CCNC(=O)c1c(NC(=O)NCc2c(-n3cccc3)sc3c2CCNC3)sc2c1CCCC2 [Compound 59]
EC50: < 100 nM

Cc1nnc(-c2c(NC(=O)NCc3c(-n4cccc4)sc4c3CCNC4)sc3c2CCCC3)o1 [Compound 60]
EC50: 100 to 1000 nM

Reference: US9809602B2, “Compounds for treating viral infections” (INSTITUT PASTEUR KOREA, priority 2014, dated 2017)
